Assay results published in patent US12239619B2, “Composition for inducing pili formation in bacterium of genus Bifidobacterium” (MORINAGA MILK INDUSTRY CO., LTD., priority 2019, dated 2025).

Legend:
Type in all cases: cell-based
[1] = tested on: Bifidobacterium longum 1-1 strain; test: Pili induction in cultured Bifidobacterium longum, Western blotting with anti-FimA antibody; conditions: anaerobic, 37° C.; for pili formation by Western blotting: 10 μg/mL in GAM agar medium, 24 hours (Test Example 5)
Procedure: KUHIMM culture solution (900 mL) containing human feces used in Test Example 1 was fractionated in the order of MilliQ water, 50% methanol, and 100% methanol (250 mL of each) with an activated carbon column (resin volume: 45 mL). Of each fraction, 100 μL was collected in another container, dried under reduced pressure, and then redissolved in 50 μL of MilliQ water. Subsequently, the Bifidobacterium longum 1-1 strain was cultured in GAM medium, and 50 μL of the redissolved solution of the above fraction was added to 1 mL of the bacterial solution obtained by adjusting the above culture solution at OD600=0.1, and culture was performed at 37° C. for 24 hours. After culture, the cells were collected by centrifugation (4000×g, 5 minutes).
Bifidobacterium longum 1-1 strain was anaerobically cultured at 37° C. for 24 hours on GAM agar medium containing 10 μg/mL of aromatic amino acids or the amino acid metabolite produced by Clostridium sporogenes.

[2] = tested on: Bifidobacterium longum 1-1 strain; test: Scanning electron microscope observation of pili in cultured Bifidobacterium longum; conditions: 10 μg/mL in GAM agar medium, anaerobic, 37° C., 24 hours
[3] = tested on: human intestinal epithelial cell line (Caco-2 or HT29-MTX); test: Adhesion of cultured Bifidobacterium longum to human intestinal epithelial cell line; conditions: B. longum cultured with 10 μg/mL PPA, 15 hours, 2 hours
Procedure: Furthermore, the adhesion of the cultured cells to the human intestinal epithelial cell line (Caco-2 or HT29-MTX) was evaluated. Specifically, the Bifidobacterium longum 1-1 strain was cultured on GAM medium containing 10 μg/mL of PPA at 37° C. for 15 hours. The cells were centrifuged (4000×g, 1 min, 4° C.), collected, and suspended in Dulbecco's modified Eagle's medium (DMEM) at OD600=0.5. 0.2 mL of this bacterial solution was added to a chamber slide glass in which HT29-MTX or Caac-2 cells had been cultured in a single layer, and was allowed to stand at 37° C. for 2 hours. After washing with DMEM medium, Bifidobacterium longum adhered with 4% paraformaldehyde was fixed and stained with crystal violet. The number of bacteria per well was counted under a microscope.

| SMILES | pili formation by Western blotting [1] | pili observed with scanning electron microscope [2] | concentration in the medium that clearly induced the pili formation ([1]; GAM agar medium, 24 hours) | pili polymerization ([1]; GAM agar medium, final concentration 0.01 to 80 μg/mL, 24 hours) | adhesion to human intestinal epithelial cell line, presence versus absence [3] |
| --- | --- | --- | --- | --- | --- |
| O=C(O)CCc1ccc(O)cc1 [3-(4-hydroxyphenyl)propionic acid] | pili formation was observed although less significant than in the former case |  |  |  |  |
| O=C(O)CCc1ccccc1 [3-phenylpropionic acid] | pili formation was observed | large fiber-shaped pili were observed | more than 0.1 μg/mL | induced pili polymerization dose-dependently | significantly larger |
